Test results from patent US20220153746A1, “NITROGEN OXIDE-DONATING PDE-5 AND/OR PDE-6 INHIBITOR COMPOUNDS, AND USES THEREOF” (ILDONG PHARMACEUTICAL CO., LTD., priority 2020, published 2022).
Like-named read-outs stand apart in the source and are kept apart here.

Experiments:
[1] = Metabolic stability in human liver microsomes; type: in vitro ADME; settings: 37° C., 0-60 minutes
Experimental: This example illustrates the metabolic stability of selected compounds in human liver microsomes samples.
Both test and control compound solutions were prepared by diluting 5 μL of the respective stock solutions (10 mM in DMSO) containing either the test or control compound with 495 μL of acetonitrile (ACN) to give intermediate solutions with concentrations of 100 μM (99% ACN).
β-Nicotinamide adenine dinucleotide phosphate tetrasodium salt (NADPH.4Na) was purchased from BONTAC (cat. No. BT04). The NADPH working solution (10 unit/mL) was prepared by combining the appropriate amount of NADPH powder and a MgCl2 solution (10 mM) to give final concentration in the reaction system of 1 unit/mL.
The appropriate concentrations of the microsome working solutions were prepared in 100 mM potassium phosphate buffer.
Cold (4° C.) acetonitrile solution containing 200 ng/mL tolbutamide and 200 ng/mL labetalol (internal standard) was used as the stop solution.
Liver microsomes solution was diluted to 0.56 mg/mL in 100 mM phosphate buffer, and 445 μL of this solution was transferred into pre-warmed (10 minutes) “incubation” plates T60 and NCF60; the “incubation” plates T60 and NCF60 were pre-warmed for 10 minutes at 37° C. with constant shaking.
54 μL of the liver microsome solutions was transferred to the blank plate, followed by addition of 6 μL of the NAPDH cofactor solution and 180 μL of the quenching solution to the same blank plate.
5 μL of the compound working solution (100 μM concentration) was next added to into the “incubation” plates (T60 and NCF60) containing microsomes and mixed 3 times thoroughly. For the NCF60 plate, 50 μL of the buffer solution was added, mixed 3 times thoroughly, and incubated at 37° C. for 60 minutes under constant shaking.
In the “Quenching” plate at T0 (T=0 min), 180 μL of quenching solution and 6 μL of the NAPDH cofactor solution were added, and the resulting plate was chilled to prevent evaporation.
In the T60 plate, after it was thoroughly mixed, 54 μL of the mixture was immediately transferred to the “quenching” plate for the 0-minute time point, followed by addition of 44 μL of NAPDH cofactor solution to the incubation plate (T60). The resulting mixture was then incubated at 37° C. for 60 minutes under constant shaking. At time points of 5, 10, 20, 30 and 60 minutes, 180 μL of the quenching solution was added to the “quenching” plates, followed by serial transfer of 60 μL of the mixture (per time point) from the T60 plate to the “Quenching” plates.
For the NCF60 plates, 60 μL of the sample solution was transferred from the NCF60 incubation plate to the “Quenching” plate containing quenching solution at T=60 min time point. […]

[2] = Plasma protein binding assay (equilibrium dialysis); type: in vitro ADME; settings: human plasma, dialysis 4 hours at 37° C.
Experimental: (§1) The dialysis device used in this example is a 96-well equilibrium dialysis plate (Cat #1006, HT Dialysis LLC, Gales Gerry, CT), and HTD 96 a/b dialysis membrane strips (Cat #1101, MWCO 12-14 kDa, HT Dialysis LLC). The dialysis device was assembled following the manufacturer's instructions.
(§2) The dialysis membrane strips were soaked in ultra-pure water at room temperature for approximately 1 hour. Each membrane strip containing 2 membranes was separated and soaked in 20:80 ethanol/water (v/v) for approximately 20 minutes, after which they were ready for used or were stored in the solution at 2-8° C. for up to a month. Prior to experiment, the membrane was rinsed and soaked for 20 minutes in ultra-pure water.
(§3) On the day of the experiment, the plasma was thawed by running under col tap water and centrifuged at 3220 rpm for 5 minutes to remove any clos. The pH value of the resulting plasma was checked. Only plasma with pH value with 7.0-8.0 could be used.
(§4) Both test and control compounds were dissolved in DMSO to achieve 10 mM stock solutions. Working solutions (400 μM) if test and control compounds were prepared by diluting 10μ of stock solutions with 240 μL of DMSO. Loading matrix solutions (2 μM) of both test and control compounds were prepared by diluting 5 μL of working solutions with 995 μL of blank matrix.
(§5) To prepare the loading matrix containing the test compound or control compounds, aliquots of either test compound working solutions or control compound working solution were spiked into blank matrix to achieve final test concentrations. The concentration of organic solvent in the final solutions were no more than 1% (normally 0.5%). The samples were mixture thoroughly before being used.
(§6) To prepare the time zero (T0) samples to be used for recovery determinations. 50 μL aliquots of loading matrix solution were transferred in triplicate to the sample collection plate. The samples were immediately matched with opposite blank buffer to obtain a final volume of 100 μL of 1:1 matrix/dialysis buffer (v/v) in each well. 500 μL of stop solution were added to these T0 samples. They were then stored at 2-8° C. pending further processes along with other post-dialysis samples.
(§7) To load the dialysis device, an aliquot of 150 μL of the loading matrix was transferred to the donor side of each dialysis well in triplicate, and 150 μL of the dialysis buffer was loaded to the received side of the well. The dialysis was placed in humidified incubator at 37° C. with 5% CO2 on a shaking platform that rated slowly (about 100 rpm) for 4 hours.
(§8) At the end of the dialysis, aliquots of 50 μL of samples were taken from both the buffer side and the matrix side of the dialysis deice. These samples were transferred into new 96-well plates (the sample collection plates). Each sample was mixed with an equal volume of opposite blank matrix (buffer or matrix) to reach a final volume of 100 μL of 1:1 matrix/dialysis buffer (v/v) in each well. All samples were further processed by adding 500 μL of stop solution containing internal standards. The mixture was vortexed and centrifuged at 4000 rpm for about 20 minutes. An aliquot of 100 μL of supernatant of all the samples were then removed for LC-MS/MS analysis.
(§9) The single blank samples were prepared by transferring 50 μL of blank matrix to a 96 well plate and adding 50 μL of blank PBS buffer to each well. The blank plasma must match the species of plasma used in the plasma side of the well. Then the matrix-matched samples were further processed by adding 500 μL of stop solution containing internal standards, following the same sample processing method as the dialysis samples.

human plasma proteins = assay: as above; type: in vitro ADME; settings: 2 μM, dialysis 4 hours at 37° C.
Experimental: as §1, §2, §3, §4, §5, §6, §7, §8, §9

human PDE-5A1 = human PDE-5A1 (Homo sapiens, UniProt O76074); assay: Human PDE-5A1 inhibition assay (fluorescence polarization, FAM-cGMP); type: biochemical
human PDE-6C = human PDE-6C (Homo sapiens, UniProt P51160); assay: Human PDE-6C inhibition assay (fluorescence polarization, FAM-cGMP); type: biochemical
Sequence of human PDE-6C (P51160 whole entry): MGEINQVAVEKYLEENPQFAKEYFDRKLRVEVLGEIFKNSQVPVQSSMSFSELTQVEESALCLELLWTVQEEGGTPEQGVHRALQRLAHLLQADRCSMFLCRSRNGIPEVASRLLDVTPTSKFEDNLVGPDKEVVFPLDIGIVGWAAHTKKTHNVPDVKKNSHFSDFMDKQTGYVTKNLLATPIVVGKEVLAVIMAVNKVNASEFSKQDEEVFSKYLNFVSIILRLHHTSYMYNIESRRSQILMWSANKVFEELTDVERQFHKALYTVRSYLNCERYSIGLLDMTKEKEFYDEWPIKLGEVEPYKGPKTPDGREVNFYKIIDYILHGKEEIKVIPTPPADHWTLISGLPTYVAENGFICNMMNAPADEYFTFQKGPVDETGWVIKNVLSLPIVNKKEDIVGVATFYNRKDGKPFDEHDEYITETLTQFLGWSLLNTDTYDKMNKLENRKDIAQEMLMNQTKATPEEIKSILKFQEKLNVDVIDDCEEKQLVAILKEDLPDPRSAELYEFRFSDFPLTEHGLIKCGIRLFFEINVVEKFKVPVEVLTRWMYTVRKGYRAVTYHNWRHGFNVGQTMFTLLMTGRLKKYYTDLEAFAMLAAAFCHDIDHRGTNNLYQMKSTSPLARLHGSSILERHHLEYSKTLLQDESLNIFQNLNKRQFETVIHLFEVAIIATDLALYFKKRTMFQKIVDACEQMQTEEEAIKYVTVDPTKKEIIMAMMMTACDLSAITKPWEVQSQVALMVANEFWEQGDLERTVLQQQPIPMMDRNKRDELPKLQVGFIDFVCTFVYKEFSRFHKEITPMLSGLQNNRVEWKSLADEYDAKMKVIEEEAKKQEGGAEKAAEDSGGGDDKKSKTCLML

SMILES | IC50 (human PDE-5A1; read-out: IC50 (μM) PDE5A1) | IC50 (human PDE-6C; read-out: IC50 (μM) PDE6C) | IC50 (human PDE-5A1) | IC50 (human PDE-6C) | also measured
CCCc1nn(C)c2c(=O)[nH]c(-c3cc(S(=O)(=O)N4CC(NCCCO)C4)ccc3OCC)nc12 [Compound 10, 5-(2-ethoxy-5-((3-((3-hydroxypropyl)amino)azetidin-1-yl)sulfonyl)phenyl)-1-methy-3-propyl-1,6-dihydro-7H-pyrazolo[4,3-d]pyrimidin-7-one] | – | – | – | – | CLint scaled at 1 µM [1]: 55 mL/min/kg; fraction unbound at 4 h, 2 µM [2]: 0.138; % Bound (human plasma proteins): 86.19%
CCCc1nn(C)c2c(=O)[nH]c(-c3cc(S(=O)(=O)N4CC(N5CC(O[N+](=O)[O-])C5)C4)ccc3OCC)nc12 [Compound 39, 1′-((4-ethoxy-3-(1-methyl-7-oxo-3-propyl-6,7-dihydro-1H-pyrazolo[4,3-d]pyrimidin-5-yl)phenyl)sulfonyl)-[1,3′-biazetidin]-3-yl nitrate] | < 0.01 µM | < 0.01 µM | – | – | –
CCCc1nn(C)c2c(=O)[nH]c(-c3cc(S(=O)(=O)N4CC(N5CC(CO[N+](=O)[O-])C5)C4)ccc3OCC)nc12 [Compound 40, (1′-((4-ethoxy-3-(1-methyl-7-oxo-3-propyl-6,7-dihydro-1H-pyrazolo[4,3-d]pyrimidin-5-yl)phenyl)sulfonyl)-[1,3′-biazetidin]-3-yl)methyl nitrate] | 0.01 to 0.1 µM | < 0.01 µM | – | – | –
CCCc1nn(C)c2c(=O)[nH]c(-c3cc(S(=O)(=O)N4CC(CCCOC(=O)CCCCCO[N+](=O)[O-])C4)ccc3OCC)nc12 [Compound 65, 3-(1-((4-ethoxy-3-(1-methyl-7-oxo-3-propyl-6,7-dihydro-1H-pyrazolo[4,3-d]pyrimidin-5-yl)phenyl)sulfonyl)azetidin-3-yl)propyl 6-(nitrooxy)hexanoate] | < 0.01 µM | < 0.01 µM | – | – | –
CCCc1nn(C)c2c(=O)[nH]c(-c3cc(S(=O)(=O)N4CC(NCCOC(=O)CCCCO[N+](=O)[O-])C4)ccc3OCC)nc12 [Compound 66, 2-((1-((4-ethoxy-3-(1-methyl-7-oxo-3-propyl-6,7-dihydro-1H-pyrazolo[4,3-d]pyrimidin-5-yl)phenyl)sulfonyl)azetidin-3-yl)amino)ethyl 5-(nitrooxy)pentanoate] | < 0.01 µM | < 0.01 µM | – | – | –
CCCc1nn(C)c2c(=O)[nH]c(-c3cc(S(=O)(=O)N4CC(N(C)CCOC(=O)CCCCCO[N+](=O)[O-])C4)ccc3OCC)nc12 [Compound 67, 2-((1-((4-ethoxy-3-(1-methyl-7-oxo-3-propyl-6,7-dihydro-1H-pyrazolo[4,3-d]pyrimidin-5-yl)phenyl)sulfonyl)azetidin-3-yl)(methyl)amino)ethyl 6-(nitrooxy)hexanoate] | < 0.01 µM | < 0.01 µM | – | – | –
CCCc1nn(C)c2c(=O)[nH]c(-c3cc(S(=O)(=O)N4CC(CCCOC(=O)CCCCC(CO[N+](=O)[O-])O[N+](=O)[O-])C4)ccc3OCC)nc12 (stereo not shown) [Compound 68, 3-(1-((4-ethoxy-3-(1-methyl-7-oxo-3-propyl-6,7-dihydro-1H-pyrazolo[4,3-d]pyrimidin-5-yl)phenyl)sulfonyl)azetidin-3-yl)propyl 6,7-bis(nitrooxy)heptanoate] | – | – | 0.01 to 0.1 µM | < 0.01 µM | –
CCCc1nn(C)c2c(=O)[nH]c(-c3cc(S(=O)(=O)N4CC(NCCOC(=O)CCCCC(CO[N+](=O)[O-])O[N+](=O)[O-])C4)ccc3OCC)nc12 (stereo not shown) [Compound 69, 2-((1-((4-ethoxy-3-(1-methyl-7-oxo-3-propyl-6,7-dihydro-1H-pyrazolo[4,3-d]pyrimidin-5-yl)phenyl)sulfonyl)azetidin-3-yl)amino)ethyl 6,7-bis(nitrooxy)heptanoate] | – | – | < 0.01 µM | < 0.01 µM | –
CCCc1nn(C)c2c(=O)[nH]c(-c3cc(S(=O)(=O)N4CC(N(C)CCOC(=O)CCCCC(CO[N+](=O)[O-])O[N+](=O)[O-])C4)ccc3OCC)nc12 (stereo not shown) [Compound 70, 2-((1-((4-ethoxy-3-(1-methyl-7-oxo-3-propyl-6,7-dihydro-1H-pyrazolo[4,3-d]pyrimidin-5-yl)phenyl)sulfonyl)azetidin-3-yl)(methyl)amino)ethyl 6,7-bis(nitrooxy)heptanoate] | – | – | < 0.01 µM | < 0.01 µM | –
CCCc1nn(C)c2c(=O)[nH]c(-c3cc(S(=O)(=O)N4CC(CCCOC(=O)CCCCO[N+](=O)[O-])C4)ccc3OCC)nc12 [Compound 71, 3-(1-((4-ethoxy-3-(1-methyl-7-oxo-3-propyl-6,7-dihydro-1H-pyrazolo[4,3-d]pyrimidin-5-yl)phenyl)sulfonyl)azetidin-3-yl)propyl 5-(nitrooxy)pentanoate] | < 0.01 µM | < 0.01 µM | – | – | –
CCCc1nn(C)c2c(=O)[nH]c(-c3cc(S(=O)(=O)N4CC(CCCOC(=O)CCCO[N+](=O)[O-])C4)ccc3OCC)nc12 [Compound 72, 3-(1-((4-ethoxy-3-(1-methyl-7-oxo-3-propyl-6,7-dihydro-1H-pyrazolo[4,3-d]pyrimidin-5-yl)phenyl)sulfonyl)azetidin-3-yl)propyl 4-(nitrooxy)butanoate] | < 0.01 µM | < 0.01 µM | – | – | –
CCCc1nn(C)c2c(=O)[nH]c(-c3cc(S(=O)(=O)N4CC(CCCOC(=O)CCC(CO[N+](=O)[O-])O[N+](=O)[O-])C4)ccc3OCC)nc12 (stereo not shown) [Compound 73, 3-(1-((4-ethoxy-3-(1-methyl-7-oxo-3-propyl-6,7-dihydro-1H-pyrazolo[4,3-d]pyrimidin-5-yl)phenyl)sulfonyl)azetidin-3-yl)propyl 4,5-bis(nitrooxy)pentanoate] | – | – | < 0.01 µM | < 0.01 µM | –
